US20020137929A1, “1 - (3-heterocyclylphenyl) isothiourea, -isourea, -guanidine and -amidine herbicidal agents” (Intellectual Property Department, BASF Aktiengesellschaft, priority 1998, published 2002)

What was measured:
[1] = test system: ABUTH (Velvetleaf); assay: Postemergence herbicidal evaluation; type: in vivo, Abutilon theophrasti; settings: postemergence
How it was run: (§1)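 Seedlings grown about two weeks were sprayed at 40 psi with compound dispersed in 50/50 acetone/water plus 0.5% TWEEN 20, at about 0.0156 to 0.500 kg/ha. Plants were kept in the greenhouse and scored 4–5 weeks later on a 0–9 visual scale against untreated controls.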

[2] = test system: CHEAL (Lambsquarters, Common); assay: Postemergence herbicidal evaluation; type: in vivo, Chenopodium album; settings: postemergence
How it was run: as §1

[3] = test system: SETVI (Foxtail, Green); assay: Postemergence herbicidal evaluation; type: in vivo, Setaria viridis; settings: postemergence
How it was run: as §1

[4] = test system: GLXMAW (Soybean, Williams); assay: Postemergence herbicidal evaluation; type: in vivo, Glycine max, (L.) Merr. cv Williams; settings: postemergence
How it was run: as §1

[5] = test system: ORYSAT (Rice, Tebonnet); assay: Postemergence herbicidal evaluation; type: in vivo, Oryza sativa, (L.) Tebonnet; settings: postemergence
How it was run: as §1

[6] = test system: TRZAWR (Wheat, Winter, cv Riband); assay: Postemergence herbicidal evaluation; type: in vivo, Triticum aestivum; settings: postemergence
How it was run: as §1

[7] = test system: ZEAMX (Corn, Field); assay: Postemergence herbicidal evaluation; type: in vivo, Zea mays; settings: postemergence
How it was run: as §1

[8] = test system: AMBEL (Ragweed, Common); assay: Preemergence herbicidal evaluation; type: in vivo, Ambrosia artemisifolia; settings: rated 4-5 weeks after treatment
How it was run: (§2)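 Seeds were planted in potting soil in cups, then sprayed preemergence with the test compound in aqueous acetone at about 0.0156 to 0.500 kg per hectare. Cups were kept under greenhouse conditions and visually rated 4–5 weeks after treatment on a 0–9 scale against an untreated control.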

[9] = test system: GALAP (Galium); assay: Preemergence herbicidal evaluation; type: in vivo, Galium aparine; settings: rated 4-5 weeks after treatment
How it was run: as §2

[10] = test system: SETVI (Foxtail, Green); assay: Preemergence herbicidal evaluation; type: in vivo, Setaria viridis; settings: rated 4-5 weeks after treatment
How it was run: as §2

[11] = test system: CYPIR (Rice Flatsedge); assay: Preemergence weed control under flooded paddy conditions; type: in vivo, Cyperus iria; settings: rated 3-4 weeks after treatment
How it was run: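 Seeds or propagules sown in top 0.5 cm of silt loam soil, flooded 1.5 to 3 cm above surface throughout. Compound in 50/50 v/v aqueous/acetone pipetted into flood water at about 0.0313 to 0.500 kg/ha. Visual 0-9 rating versus control after three to four weeks in greenhouse.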

[12] = test system: ECHORC (Watergrass (Calif.)); assay: Postemergence weed control under flooded paddy conditions; type: in vivo, Echinochloa oryzoides; settings: postemergence weeds, 3-4 weeks after treatment
How it was run: (§3)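 With weeds 3 to 5 cm tall and rice at the 1.5 to 2.5 leaf stage, containers were flooded and water held 1.5 to 3 cm above soil. Compounds in 50/50 v/v aqueous/acetone went into the flood water at about 0.0313 to 0.500 kg/ha a.i. Effects were visually rated 0–9 against controls after three to four weeks in the greenhouse.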

[13] = test system: CYPSE (Flatsedge); assay: as above; type: in vivo, Cyperus serotinus; settings: postemergence weeds, 3-4 weeks after treatment
How it was run: as §3

[14] = test system: SAGPY (Arrowhead (Pygmaea)); assay: as above; type: in vivo, Sagittaria pygmaea; settings: postemergence weeds, 3-4 weeks after treatment
How it was run: as §3

CC1SC(=Nc2cc(-n3c(=O)cc(C(F)(F)F)n(C)c3=O)c(F)cc2Cl)N(C)C1=O (stereo not shown) [Compound 9]
4.0: Herbicidal rating CYPIR ([11]; 0.1250 kg/ha) | Herbicidal rating ECHORC ([12]; rate 0.1250 kg/ha)
5.5: ZEAMX herbicidal rating ([7]; rate 0.0625 kg/ha)
2.0: SETVI herbicidal rating ([3]; rate 0.0313 kg/ha) | ORYSAT herbicidal rating ([5]; rate 0.0156 kg/ha) | Herbicidal rating CYPIR ([11]; 0.0625 kg/ha) | Herbicidal rating ECHORC ([12]; rate 0.0625 kg/ha) | Herbicidal rating CYPSE ([13]; rate 0.1250 kg/ha) | Herbicidal rating SAGPY ([14]; rate 0.2500 kg/ha)
5.0: TRZAWR herbicidal rating ([6]; rate 0.1250 kg/ha) | ZEAMX herbicidal rating ([7]; rate 0.0313 kg/ha)
5.8: GLXMAW herbicidal rating ([4]; rate 0.0313 kg/ha)
6.8: GLXMAW herbicidal rating ([4]; rate 0.0625 kg/ha)
9.0: ABUTH herbicidal rating ([1]; rate 0.0156 kg/ha) | ABUTH herbicidal rating ([1]; rate 0.0313 kg/ha) | ABUTH herbicidal rating ([1]; rate 0.0625 kg/ha) | ABUTH herbicidal rating ([1]; rate 0.1250 kg/ha) | CHEAL herbicidal rating ([2]; rate 0.0625 kg/ha) | CHEAL herbicidal rating ([2]; rate 0.1250 kg/ha) | SETVI herbicidal rating ([3]; rate 0.1250 kg/ha) | AMBEL preemergence herbicidal rating ([8]; rate 0.1250 kg/ha) | AMBEL preemergence herbicidal rating ([8]; rate 0.2500 kg/ha) | GALAP preemergence herbicidal rating ([9]; rate 0.0625 kg/ha) | GALAP preemergence herbicidal rating ([9]; rate 0.1250 kg/ha) | GALAP preemergence herbicidal rating ([9]; rate 0.2500 kg/ha) | SETVI preemergence herbicidal rating ([10]; rate 0.0313 kg/ha) | SETVI preemergence herbicidal rating ([10]; rate 0.0625 kg/ha) | SETVI preemergence herbicidal rating ([10]; rate 0.1250 kg/ha) | SETVI preemergence herbicidal rating ([10]; rate 0.2500 kg/ha)
4.8: ZEAMX herbicidal rating ([7]; rate 0.0156 kg/ha)
0.0: Herbicidal rating CYPIR ([11]; 0.0313 kg/ha) | Herbicidal rating ECHORC ([12]; rate 0.0313 kg/ha) | Herbicidal rating CYPSE ([13]; rate 0.0313 kg/ha) | Herbicidal rating CYPSE ([13]; rate 0.0625 kg/ha) | Herbicidal rating SAGPY ([14]; rate 0.0313 kg/ha) | Herbicidal rating SAGPY ([14]; rate 0.0625 kg/ha)
6.0: CHEAL herbicidal rating ([2]; rate 0.0313 kg/ha) | Herbicidal rating CYPIR ([11]; 0.2500 kg/ha)
3.0: ORYSAT herbicidal rating ([5]; rate 0.0625 kg/ha) | AMBEL preemergence herbicidal rating ([8]; rate 0.0156 kg/ha)
6.5: CHEAL herbicidal rating ([2]; rate 0.0156 kg/ha) | SETVI herbicidal rating ([3]; rate 0.0625 kg/ha)
3.3: TRZAWR herbicidal rating ([6]; rate 0.0156 kg/ha)
3.5: ORYSAT herbicidal rating ([5]; rate 0.1250 kg/ha) | TRZAWR herbicidal rating ([6]; rate 0.0313 kg/ha)
4.3: TRZAWR herbicidal rating ([6]; rate 0.0625 kg/ha)
2.3: ORYSAT herbicidal rating ([5]; rate 0.0313 kg/ha)
4.5: GLXMAW herbicidal rating ([4]; rate 0.0156 kg/ha) | GALAP preemergence herbicidal rating ([9]; rate 0.0313 kg/ha)
6.3: AMBEL preemergence herbicidal rating ([8]; rate 0.0313 kg/ha)
8.3: SETVI preemergence herbicidal rating ([10]; rate 0.0156 kg/ha)
7.3: GLXMAW herbicidal rating ([4]; rate 0.1250 kg/ha) | AMBEL preemergence herbicidal rating ([8]; rate 0.0625 kg/ha)
1.0: SETVI herbicidal rating ([3]; rate 0.0156 kg/ha) | GALAP preemergence herbicidal rating ([9]; rate 0.0156 kg/ha) | Herbicidal rating SAGPY ([14]; rate 0.1250 kg/ha)
7.0: ZEAMX herbicidal rating ([7]; rate 0.1250 kg/ha) | Herbicidal rating ECHORC ([12]; rate 0.2500 kg/ha) | Herbicidal rating CYPSE ([13]; rate 0.2500 kg/ha)

CN1C(=O)CSC1=Nc1cc(N2C(=O)C3=C(CCCC3)C2=O)c(F)cc1Cl [Compound 1, N-{4-chloro-2-fluoro-5-[(3-methyl-4-oxo-2-thiazolidinylidene)amino]phenyl}-1-cyclohexene-1,2-dicarboximide]
6.0: CHEAL herbicidal rating ([2]; rate 0.0157 kg/ha) | GLXMAW herbicidal rating ([4]; rate 0.5000 kg/ha) | TRZAWR herbicidal rating ([6]; rate 0.5000 kg/ha)
4.5: GLXMAW herbicidal rating ([4]; rate 0.0313 kg/ha) | GLXMAW herbicidal rating ([4]; rate 0.0625 kg/ha)
2.0: AMBEL preemergence herbicidal rating ([8]; rate 0.0625 kg/ha) | Herbicidal rating CYPIR ([11]; 0.0313 kg/ha) | Herbicidal rating ECHORC ([12]; rate 0.0625 kg/ha)
0.0: AMBEL preemergence herbicidal rating ([8]; rate 0.0313 kg/ha) | Herbicidal rating CYPSE ([13]; rate 0.0313 kg/ha) | Herbicidal rating CYPSE ([13]; rate 0.0625 kg/ha) | Herbicidal rating CYPSE ([13]; rate 0.1250 kg/ha) | Herbicidal rating SAGPY ([14]; rate 0.0313 kg/ha) | Herbicidal rating SAGPY ([14]; rate 0.0625 kg/ha) | Herbicidal rating SAGPY ([14]; rate 0.1250 kg/ha) | Herbicidal rating SAGPY ([14]; rate 0.2500 kg/ha) | Herbicidal rating SAGPY ([14]; rate 0.5000 kg/ha)
7.0: CHEAL herbicidal rating ([2]; rate 0.0313 kg/ha) | CHEAL herbicidal rating ([2]; rate 0.0625 kg/ha) | SETVI herbicidal rating ([3]; rate 0.1250 kg/ha) | SETVI herbicidal rating ([3]; rate 0.2500 kg/ha) | GALAP preemergence herbicidal rating ([9]; rate 0.0625 kg/ha) | Herbicidal rating CYPIR ([11]; 0.0625 kg/ha)
4.0: SETVI herbicidal rating ([3]; rate 0.0625 kg/ha) | GLXMAW herbicidal rating ([4]; rate 0.0157 kg/ha) | TRZAWR herbicidal rating ([6]; rate 0.0625 kg/ha) | ZEAMX herbicidal rating ([7]; rate 0.0625 kg/ha) | Herbicidal rating CYPSE ([13]; rate 0.5000 kg/ha)
9.0: ABUTH herbicidal rating ([1]; rate 0.1250 kg/ha) | ABUTH herbicidal rating ([1]; rate 0.2500 kg/ha) | ABUTH herbicidal rating ([1]; rate 0.5000 kg/ha) | CHEAL herbicidal rating ([2]; rate 0.1250 kg/ha) | CHEAL herbicidal rating ([2]; rate 0.2500 kg/ha) | CHEAL herbicidal rating ([2]; rate 0.5000 kg/ha) | SETVI herbicidal rating ([3]; rate 0.5000 kg/ha) | GALAP preemergence herbicidal rating ([9]; rate 0.0313 kg/ha) | GALAP preemergence herbicidal rating ([9]; rate 0.1250 kg/ha) | GALAP preemergence herbicidal rating ([9]; rate 0.2500 kg/ha) | SETVI preemergence herbicidal rating ([10]; rate 0.0625 kg/ha) | SETVI preemergence herbicidal rating ([10]; rate 0.2500 kg/ha) | Herbicidal rating CYPIR ([11]; 0.1250 kg/ha) | Herbicidal rating CYPIR ([11]; 0.2500 kg/ha) | Herbicidal rating CYPIR ([11]; 0.5000 kg/ha)
2.5: TRZAWR herbicidal rating ([6]; rate 0.0157 kg/ha) | ZEAMX herbicidal rating ([7]; rate 0.0157 kg/ha)
6.7: AMBEL preemergence herbicidal rating ([8]; rate 0.5000 kg/ha)
1.5: ORYSAT herbicidal rating ([5]; rate 0.0313 kg/ha)
5.5: GLXMAW herbicidal rating ([4]; rate 0.2500 kg/ha) | ORYSAT herbicidal rating ([5]; rate 0.2500 kg/ha) | ORYSAT herbicidal rating ([5]; rate 0.5000 kg/ha) | TRZAWR herbicidal rating ([6]; rate 0.2500 kg/ha) | ZEAMX herbicidal rating ([7]; rate 0.2500 kg/ha) | Herbicidal rating ECHORC ([12]; rate 0.5000 kg/ha)
8.0: ABUTH herbicidal rating ([1]; rate 0.0313 kg/ha) | ABUTH herbicidal rating ([1]; rate 0.0625 kg/ha) | GALAP preemergence herbicidal rating ([9]; rate 0.5000 kg/ha) | SETVI preemergence herbicidal rating ([10]; rate 0.1250 kg/ha) | SETVI preemergence herbicidal rating ([10]; rate 0.5000 kg/ha)
5.0: ABUTH herbicidal rating ([1]; rate 0.0157 kg/ha) | GLXMAW herbicidal rating ([4]; rate 0.1250 kg/ha) | TRZAWR herbicidal rating ([6]; rate 0.1250 kg/ha) | ZEAMX herbicidal rating ([7]; rate 0.1250 kg/ha) | AMBEL preemergence herbicidal rating ([8]; rate 0.1250 kg/ha) | AMBEL preemergence herbicidal rating ([8]; rate 0.2500 kg/ha) | SETVI preemergence herbicidal rating ([10]; rate 0.0313 kg/ha)
3.5: ORYSAT herbicidal rating ([5]; rate 0.1250 kg/ha) | TRZAWR herbicidal rating ([6]; rate 0.0313 kg/ha) | ZEAMX herbicidal rating ([7]; rate 0.0313 kg/ha) | Herbicidal rating ECHORC ([12]; rate 0.2500 kg/ha)
3.0: SETVI herbicidal rating ([3]; rate 0.0313 kg/ha) | ORYSAT herbicidal rating ([5]; rate 0.0625 kg/ha) | Herbicidal rating ECHORC ([12]; rate 0.1250 kg/ha)
6.5: ZEAMX herbicidal rating ([7]; rate 0.5000 kg/ha)
1.0: SETVI herbicidal rating ([3]; rate 0.0157 kg/ha) | ORYSAT herbicidal rating ([5]; rate 0.0157 kg/ha) | Herbicidal rating ECHORC ([12]; rate 0.0313 kg/ha) | Herbicidal rating CYPSE ([13]; rate 0.2500 kg/ha)
